“And” between values parts separate entries of the source, which are not always exact repeats. Equal values may be shown once.
System: 885512-296-R-J2-PDC complex spheroid growth, % test/control
Assay: Anticancer human tumor 885512-296-R-J2-PDC patient-derived breast carcinoma cell line growth inhibition [AhR]
Settings: for viability, T/C: stronger effect = lower value
Procedure, shortened: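 Spheroids combined tumor cells with HUVEC endothelial cells and human MSCs as stroma. AhR antagonists were paired with standard or investigational drugs, each dosed in half-log steps down from near clinical Cmax, or from 10 microM where Cmax was unknown.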

[1] = curve of first compound, second compound 0.1 µM
[2] = curve of first compound, second compound 0.316 µM
[3] = curve of first compound, second compound 1 µM
[4] = curve of first compound, second compound 3.16 µM
[5] = curve of first compound, second compound 10 µM
[6] = second compound 0.1 µM, first compound 0.0316 µM
[7] = second compound 0.1 µM, first compound 0.1 µM
[8] = second compound 0.1 µM, first compound 0.316 µM
[9] = second compound 0.1 µM, first compound 1 µM
[10] = second compound 0.1 µM, first compound 3.16 µM
[11] = second compound 0.1 µM, first compound 10 µM
[12] = second compound 0.316 µM, first compound 0.0316 µM
[13] = second compound 0.316 µM, first compound 0.1 µM
[14] = second compound 0.316 µM, first compound 0.316 µM
[15] = second compound 0.316 µM, first compound 1 µM
[16] = second compound 0.316 µM, first compound 3.16 µM
[17] = second compound 0.316 µM, first compound 10 µM
[18] = second compound 1 µM, first compound 0.0316 µM
[19] = second compound 1 µM, first compound 0.1 µM
[20] = second compound 1 µM, first compound 0.316 µM
[21] = second compound 1 µM, first compound 1 µM
[22] = second compound 1 µM, first compound 3.16 µM
[23] = second compound 1 µM, first compound 10 µM
[24] = second compound 3.16 µM, first compound 0.0316 µM
[25] = second compound 3.16 µM, first compound 0.1 µM
[26] = second compound 3.16 µM, first compound 0.316 µM
[27] = second compound 3.16 µM, first compound 1 µM
[28] = second compound 3.16 µM, first compound 3.16 µM
[29] = second compound 3.16 µM, first compound 10 µM
[30] = second compound 10 µM, first compound 0.0316 µM
[31] = second compound 10 µM, first compound 0.1 µM
[32] = second compound 10 µM, first compound 0.316 µM
[33] = second compound 10 µM, first compound 1 µM
[34] = second compound 10 µM, first compound 3.16 µM
[35] = second compound 10 µM, first compound 10 µM
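Further: spheroids exposed to compounds for seven days.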

## CC(C)c1c(-c2ccccc2)nc2c(C#N)c[nH]n2c1=O + Cc1cncc(-c2nc(NCCc3c[nH]c4ccccc34)c3ncn(C(C)C)c3n2)c1
[1]
  IC50: > 10000 nM
[2]
  IC50: > 10000 nM
[3]
  IC50: > 10000 nM
[4]
  IC50: > 10000 nM
[5]
  IC50: < 31.6 nM
[6]
  viability, T/C: 108%
[7]
  viability, T/C: 108%
[8]
  viability, T/C: 101%
[9]
  viability, T/C: 109%
[10]
  viability, T/C: 97.1%
[11]
  viability, T/C: 86.6%
[12]
  viability, T/C: 104%
[13]
  viability, T/C: 108%
[14]
  viability, T/C: 105%
[15]
  viability, T/C: 93.3%
[16]
  viability, T/C: 102%
[17]
  viability, T/C: 89.3%
[18]
  viability, T/C: 94.5%
[19]
  viability, T/C: 95.4%
[20]
  viability, T/C: 83%
[21]
  viability, T/C: 83.2%
[22]
  viability, T/C: 80.8%
[23]
  viability, T/C: 81.8%
[24]
  viability, T/C: 62%
[25]
  viability, T/C: 59.7%
[26]
  viability, T/C: 56.2%
[27]
  viability, T/C: 62.1%
[28]
  viability, T/C: 60.5%
[29]
  viability, T/C: 52.3%
[30]
  viability, T/C: 17%
[31]
  viability, T/C: 18.7%
[32]
  viability, T/C: 17.9%
[33]
  viability, T/C: 14.5%
[34]
  viability, T/C: 17.9%
[35]
  viability, T/C: 17.9%

## O=C(C=Cc1cccc(S(=O)(=O)Nc2ccccc2)c1)NO + Cc1cncc(-c2nc(NCCc3c[nH]c4ccccc34)c3ncn(C(C)C)c3n2)c1
[1]
  IC50: 1010 nM
[2]
  IC50: 1340 nM
[3]
  IC50: 680 nM
[4]
  IC50: 153 nM
[5]
  IC50: < 31.6 nM
[6]
  viability, T/C: 77.7%
[7]
  viability, T/C: 93.9%
[8]
  viability, T/C: 70.5%
[9]
  viability, T/C: 45%
[10]
  viability, T/C: 30.8%
[11]
  viability, T/C: 7.26%
[12]
  viability, T/C: 86.3%
[13]
  viability, T/C: 80.5%
[14]
  viability, T/C: 74.2%
[15]
  viability, T/C: 50%
[16]
  viability, T/C: 37.5%
[17]
  viability, T/C: 7.14%
[18]
  viability, T/C: 96.1%
[19]
  viability, T/C: 72.5%
[20]
  viability, T/C: 65.2%
[21]
  viability, T/C: 41.1%
[22]
  viability, T/C: 31.1%
[23]
  viability, T/C: 9.39%
[24]
  viability, T/C: 52.2%
[25]
  viability, T/C: 62%
[26]
  viability, T/C: 39.5%
[27]
  viability, T/C: 31.8%
[28]
  viability, T/C: 21.8%
[29]
  viability, T/C: 10.2%
[30]
  viability, T/C: 20.6%
[31]
  viability, T/C: 20.6%
[32]
  viability, T/C: 19.5%
[33]
  viability, T/C: 16%
[34]
  viability, T/C: 12.6%
[35]
  viability, T/C: 5.42%

## CC1COCCN1c1cc(C2(S(C)(=N)=O)CC2)nc(-c2ccnc3[nH]ccc23)n1 (centres undefined)
Compound 0.0316 µM
  viability, T/C: 103% and 100% and 97%
Compound 0.1 µM
  viability, T/C: 107% and 96.4% and 98.6%
Compound 0.316 µM
  viability, T/C: 101% and 104% and 91.9%
Compound 1 µM
  viability, T/C: 86.5% and 73.7% and 82.7%
Compound 3.16 µM
  viability, T/C: 31.6% and 18.2% and 17.2%
Compound 10 µM
  viability, T/C: 5.26% and 5.01% and 5.03%
Curve of compound
  IC50: 2150 nM and 1640 nM and 1780 nM

## Nc1ccn(C2OC(CO)C(O)C2(F)F)c(=O)n1 (centres undefined)
Compound 0.0316 µM
  viability, T/C: 3% and 2.24% and 2.66%
Compound 0.1 µM
  viability, T/C: 3.22% and 2.41% and 2.65%
Compound 0.316 µM
  viability, T/C: 3.38% and 3.96% and 3.68%
Compound 1 µM
  viability, T/C: 3.04% and 4.06% and 3.38%
Compound 3.16 µM
  viability, T/C: 3.46% and 3.77% and 3.42%
Compound 10 µM
  viability, T/C: 3.08% and 3.9% and 2.46%
Curve of compound
  IC50: < 31.6 nM
